From publication PMC6338342 (Journal of chromatography. B, Analytical technologies in …, 2016)
Read-outs that look alike come from different tables or passages of the source. Each block holds one molecule with its values, some of them ahead of it.

What was measured:
[1] = rat, in vivo, po
[2] = tested on: UMR 106 cells; experiment: Alkaline phosphatase; format: cell-based; settings: 0.01, 0.1, 1 μM, 48 h
[3] = tested on: 3T3-L1 cells; experiment: Adipocyte differentiation and Oil Red O staining; format: cell-based; settings: 1 or 10 μM, Oil Red O staining on day 8
[4] = tested on: UMR106 cells; experiment: MTT cell proliferation assay; format: cell-based; settings: 0.01, 0.1, 1, 10 μM, 24 h
[5] = in vivo; settings: male, Sprague-Dawley, rat, po
[6] = rat serum, oral XLGB extract 3 g/kg, n = 6
[7] = rat serum, oral XLGB extract 6 g/kg, n = 6
[8] = rat serum, oral XLGB extract 12 g/kg, n = 6
[9] = male, Sprague-Dawley, rat, serum, po, 3 g/kg
[10] = male, Sprague-Dawley, rat, serum, po, 6 g/kg
[11] = male, Sprague-Dawley, rat, serum, po, 12 g/kg
[12] = male, Sprague-Dawley, rat, in vivo, po, 3 g/kg
[13] = male, Sprague-Dawley, rat, in vivo, po, 6 g/kg
[14] = male, Sprague-Dawley, rat, in vivo, po, 12 g/kg

Molecule: CC1(C)CC[C@]2(C(=O)O[C@@H]3O[C@H](CO[C@@H]4O[C@H](CO)[C@@H](O)[C@H](O)[C@H]4O)[C@@H](O)[C@H](O)[C@H]3O)CC[C@]3(C)C(=CC[C@@H]4[C@@]5(C)CC[C@H](O[C@@H]6OC[C@H](O)[C@H](O)[C@H]6O)[C@@](C)(CO)[C@@H]5CC[C@]43C)[C@@H]2C1 [Akebia saponin D, akebia saponin D]
AUC0–∞ ([1]; 6 g/kg): 0.75683 ± 0.14072 µg·h/mL
AUC(0-t) ([1]; 6 g/kg): 0.73152 ± 0.13154 µg·h/mL
MRT0–t ([1]; 6 g/kg): 2.41 ± 0.25 h
MRT0–∞ ([1]; 6 g/kg): 2.63 ± 0.25 h
AUC0–∞ ([1]; 12 g/kg): 2.65847 ± 0.24131 µg·h/mL
AUC(0-t) ([1]; 12 g/kg): 2.64249 ± 0.23318 µg·h/mL
MRT0–t ([1]; 12 g/kg): 5.03 ± 0.32 h
MRT0–∞ ([1]; 12 g/kg): 5.91 ± 0.50 h

Molecule: C=C[C@H]1[C@H](O[C@@H]2O[C@H](CO)[C@@H](O)[C@H](O)[C@H]2O)OC=C2C(=O)OCC[C@H]21 [Sweroside, sweroside]
effect on alkaline phosphatase (ALP) activity of UMR 106 cells [2]: excellent bioactivities
effect on adipogenesis of 3T3-L1 cells [3]: excellent bioactivities
effect on proliferation of UMR 106 cells [4]: excellent bioactivities
AUC(0-inf) ([5]; 3 g/kg): 0.452 ± 0.0503 µg·h/mL
AUC(0-t) ([5]; 3 g/kg): 0.313 ± 0.0391 µg·h/mL
Cmax ([5]; 3 g/kg): 0.0356 ± 0.00227 µg/mL
MRT inf ([5]; 3 g/kg): 31.7 ± 4.64 h
Tmax ([5]; 3 g/kg): 1.17 ± 0.26 h
half-life ([5]; 3 g/kg): 21.3 ± 3.33 h
AUC(0-inf) ([5]; 6 g/kg): 0.69 ± 0.11 µg·h/mL
AUC(0-t) ([5]; 6 g/kg): 0.598 ± 0.0593 µg·h/mL
Cmax ([5]; 6 g/kg): 0.135 ± 0.0103 µg/mL
MRT inf ([5]; 6 g/kg): 16.7 ± 7.3 h
MRT last ([5]; 6 g/kg): 8.31 ± 2.11 h
half-life ([5]; 6 g/kg): 13.8 ± 7.36 h
AUC(0-inf) ([5]; 12 g/kg): 1.33 ± 0.0979 µg·h/mL
AUC(0-t) ([5]; 12 g/kg): 1.15 ± 0.0353 µg·h/mL
Cmax ([5]; 12 g/kg): 0.301 ± 0.0194 µg/mL
MRT inf ([5]; 12 g/kg): 19.2 ± 6.86 h
MRT last ([5]; 12 g/kg): 8.25 ± 0.83 h
Tmax ([5]; 12 g/kg): 0.5 h
half-life ([5]; 12 g/kg): 23.7 ± 12.3 h

Molecule: COc1ccc(-c2oc3c(CC=C(C)C)c(O[C@@H]4O[C@H](CO)[C@@H](O)[C@H](O)[C@H]4O)cc(O)c3c(=O)c2O[C@@H]2O[C@@H](C)[C@H](O)[C@@H](O)[C@H]2O[C@@H]2O[C@@H](C)[C@H](O)[C@@H](O)[C@H]2O)cc1 [Epimedin C, epimedin C]
AUC0–∞ ([1]; 3 g/kg): 0.06933 ± 0.03754 µg·h/mL
AUC(0-t) ([1]; 3 g/kg): 0.0217 ± 0.0034 µg·h/mL
MRT0–t ([1]; 3 g/kg): 1.41 ± 1.01 h
MRT0–∞ ([1]; 3 g/kg): 20.72 ± 19.70 h
AUC0–∞ ([1]; 6 g/kg): 1.36529 ± 0.08031 µg·h/mL
AUC(0-t) ([1]; 6 g/kg): 1.36131 ± 0.07946 µg·h/mL
MRT0–t ([1]; 6 g/kg): 1.45 ± 0.08 h
MRT0–∞ ([1]; 6 g/kg): 1.47 ± 0.08 h
AUC0–∞ ([1]; 12 g/kg): 4.52769 ± 0.47454 µg·h/mL
AUC(0-t) ([1]; 12 g/kg): 4.39749 ± 0.43563 µg·h/mL
MRT0–t ([1]; 12 g/kg): 3.07 ± 0.63 h
MRT0–∞ ([1]; 12 g/kg): 5.10 ± 4.50 h

Molecule: O=c1ccc2ccc3occc3c2o1 [Isopsoralen, isopsoralen]
AUC(0-inf) [12]: 2.47 ± 0.494 µg·h/mL
AUC(0-t) [12]: 2.39 ± 0.46 µg·h/mL
Cmax [12]: 0.27 ± 0.035 µg/mL
MRT inf [12]: 8.73 ± 3.76 h
MRT last [12]: 7.49 ± 2.83 h
Tmax [12]: 3.5 ± 2.49 h
half-life [12]: 6.88 ± 4.89 h
AUC(0-t) [13]: 15.1 ± 1.29 µg·h/mL
Cmax [13]: 1.14 ± 0.1 µg/mL
MRT inf [13]: 12.2 ± 0.75 h
MRT last [13]: 11.7 ± 0.83 h
Tmax [13]: 3.67 ± 0.52 h
half-life [13]: 6.78 ± 1.09 h
AUC(0-inf) [14]: 19.9 ± 2.02 µg·h/mL
AUC(0-t) [14]: 19.4 ± 2 µg·h/mL
Cmax [14]: 1.24 ± 0.0722 µg/mL
MRT inf [14]: 14.2 ± 1.43 h
MRT last [14]: 13.3 ± 0.43 h
Tmax [14]: 1.67 ± 0.41 h
half-life [14]: 6.86 ± 3.44 h

Molecule: CC(C)=CCc1cc2c(cc1O)oc(=O)c1c3ccc(O)cc3oc21 [Psoralidin, psoralidin]
AUC0–∞ ([1]; 6 g/kg): 0.01158 ± 0.00094 µg·h/mL
AUC(0-t) ([1]; 6 g/kg): 0.0088 ± 0.00138 µg·h/mL
MRT0–t ([1]; 6 g/kg): 1.78 ± 0.36 h
MRT0–∞ ([1]; 6 g/kg): 3.13 ± 0.36 h
AUC0–∞ ([1]; 12 g/kg): 0.03427 ± 0.01604 µg·h/mL
AUC(0-t) ([1]; 12 g/kg): 0.02778 ± 0.01397 µg·h/mL
MRT0–t ([1]; 12 g/kg): 2.05 ± 0.45 h
MRT0–∞ ([1]; 12 g/kg): 2.78 ± 0.68 h
effect on adipogenesis of 3T3-L1 cells [3]: obviously inhibited adipocyte formation

Now from value to molecule:

AUC0–∞ [6]: 0.0536 ± 0.02793 µg·h/mL
AUC(0-t) [6]: 0.03163 ± 0.01139 µg·h/mL
Cmax [6]: 0.01025 ± 0.00284 µg/mL
MRT0–t [6]: 6.26 ± 4.26 h
MRT0–∞ [6]: 18.47 ± 15.68 h
Tmax [6]: 0.50 ± 0 h
t1/2 [6]: 11.51 ± 9.48 h
AUC0–∞ [7]: 0.40685 ± 0.05664 µg·h/mL
AUC(0-t) [7]: 0.34662 ± 0.03695 µg·h/mL
Cmax [7]: 0.02041 ± 0.00263 µg/mL
MRT0–t [7]: 19.50 ± 3.03 h
MRT0–∞ [7]: 28.15 ± 8.89 h
Tmax [7]: 1.25 ± 1.04 h
t1/2 [7]: 19.08 ± 8.31 h
AUC0–∞ [8]: 0.37976 ± 0.05932 µg·h/mL
AUC(0-t) [8]: 0.3433 ± 0.06162 µg·h/mL
Cmax [8]: 0.036 ± 0.00429 µg/mL
MRT0–t [8]: 13.56 ± 2.69 h
MRT0–∞ [8]: 18.40 ± 3.38 h
Tmax [8]: 1.58 ± 0.38 h
t1/2 [8]: 12.57 ± 3.06 h
Molecule: bavachinin

AUC(0-inf) [9]: 0.32 ± 0.0969 µg·h/mL
AUC(0-t) [9]: 0.264 ± 0.0762 µg·h/mL
Cmax [9]: 0.0318 ± 0.00477 µg/mL
MRT inf [9]: 26.2 ± 8.51 h
MRT last [9]: 16.4 ± 4.54 h
Tmax [9]: 0.5 h
half-life [9]: 20 ± 8.43 h
AUC(0-inf) [10]: 4.61 ± 0.572 µg·h/mL
AUC(0-t) [10]: 2.6 ± 0.249 µg·h/mL
Cmax [10]: 0.652 ± 0.0646 µg/mL
MRT inf [10]: 44.4 ± 6.88 h
MRT last [10]: 17.3 ± 0.63 h
Tmax [10]: 0.67 ± 0.26 h
half-life [10]: 21.8 ± 4.2 h
AUC(0-inf) [11]: 3.48 ± 0.121 µg·h/mL
AUC(0-t) [11]: 3.33 ± 0.13 µg·h/mL
Cmax [11]: 1.16 ± 0.102 µg/mL
MRT inf [11]: 9.43 ± 0.47 h
MRT last [11]: 6.67 ± 0.32 h
Tmax [11]: 1.67 ± 0.26 h
half-life [11]: 13.4 ± 0.75 h
Molecule: COc1ccc2c(c1O)-c1c(O)c(OC)cc3c1[C@H](C2)[N+](C)(C)CC3 [Magnoflorine, magnoflorine]

AUC0–∞ ([1]; 3 g/kg): 0.08637 ± 0.06767 µg·h/mL
AUC(0-t) ([1]; 3 g/kg): 0.01062 ± 0.00366 µg·h/mL
MRT0–t ([1]; 3 g/kg): 5.60 ± 5.20 h
MRT0–∞ ([1]; 3 g/kg): 51.11 ± 29.69 h
AUC0–∞ ([1]; 6 g/kg): 0.22772 ± 0.05275 µg·h/mL
AUC(0-t) ([1]; 6 g/kg): 0.1665 ± 0.02645 µg·h/mL
MRT0–t ([1]; 6 g/kg): 16.55 ± 4.24 h
MRT0–∞ ([1]; 6 g/kg): 33.27 ± 11.40 h
AUC0–∞ ([1]; 12 g/kg): 0.44239 ± 0.10776 µg·h/mL
AUC(0-t) ([1]; 12 g/kg): 0.38615 ± 0.084 µg·h/mL
MRT0–t ([1]; 12 g/kg): 14.73 ± 1.76 h
MRT0–∞ ([1]; 12 g/kg): 20.65 ± 3.78 h
Molecule: corylin

AUC(0-inf) [9]: 0.00724 ± 0.00625 µg·h/mL
AUC(0-t) [9]: 0.0021 ± 0.00078 µg·h/mL
Cmax [9]: 0.00146 ± 0.00038 µg/mL
MRT last [9]: 1.57 ± 0.81 h
Tmax [9]: 0.5 h
half-life [9]: 6.28 ± 7.25 h
AUC(0-inf) [10]: 0.0606 ± 0.041 µg·h/mL
AUC(0-t) [10]: 0.0411 ± 0.019 µg·h/mL
Cmax [10]: 0.0107 ± 0.00059 µg/mL
MRT inf [10]: 19.3 ± 20.7 h
MRT last [10]: 9.13 ± 9.19 h
Tmax [10]: 0.58 ± 0.2 h
half-life [10]: 11.2 ± 9.11 h
AUC(0-inf) [11]: 0.127 ± 0.0323 µg·h/mL
AUC(0-t) [11]: 0.11 ± 0.0303 µg·h/mL
Cmax [11]: 0.0184 ± 0.0054 µg/mL
MRT inf [11]: 17.2 ± 9.5 h
MRT last [11]: 8.79 ± 2.43 h
half-life [11]: 16.2 ± 10.3 h
Molecule: CC(C)=CCc1cc(-c2coc3cc(O)ccc3c2=O)ccc1O [Neobavaisoflavone, neobavaisoflavone]

AUC(0-inf) [9]: 2.81 ± 0.701 µg·h/mL
AUC(0-t) [9]: 2.74 ± 0.682 µg·h/mL
Cmax [9]: 0.29 ± 0.0233 µg/mL
MRT inf [9]: 8.4 ± 2.93 h
MRT last [9]: 7.55 ± 2.44 h
Tmax [9]: 4.5 ± 1.22 h
half-life [9]: 6.39 ± 3.73 h
AUC(0-inf) [10]: 18.5 ± 0.529 µg·h/mL
AUC(0-t) [10]: 18.3 ± 0.511 µg·h/mL
Cmax [10]: 1.38 ± 0.15 µg/mL
MRT inf [10]: 12.2 ± 0.9 h
MRT last [10]: 11.8 ± 0.99 h
Tmax [10]: 2.92 ± 1.28 h
half-life [10]: 6.78 ± 1 h
AUC(0-inf) [11]: 28.4 ± 0.877 µg·h/mL
AUC(0-t) [11]: 28.3 ± 0.899 µg·h/mL
Cmax [11]: 1.91 ± 0.118 µg/mL
MRT inf [11]: 13.3 ± 1.18 h
MRT last [11]: 13.2 ± 1.14 h
half-life [11]: 4.2 ± 0.42 h
Molecule: O=c1ccc2cc3ccoc3cc2o1 [Psoralen, psoralen]
